Measured values taken from patent US20250197601A1, “COMPOSITION” (LMS CO., LTD., priority 2023, published 2025).

Assay: Solubility of each synthesized compound in multiple solvents at room temperature
Format: physicochemical
Details: room temperature (about 25° C.); for Solubility in MEK: methyl ethyl ketone; for Solubility in MIBK: methyl isobutyl ketone
Method: The solubility of each compound synthesized above was evaluated. Solubility was evaluated based on the following criteria by evaluating the solubility of each compound in multiple solvents (cyclohexanone, toluene, methyl isobutyl ketone (MIBK), or methyl ethyl ketone (MEK)) at room temperature (about 25° C.).
• A: A case where the solubility is 1% by mass or more. • B: A case where the solubility is 0.5 mass % or more and less than 1 mass %. • C: A case where the solubility is 0.2 mass % or more and less than 0.5 mass %. • D: A case where solubility is less than 0.2 mass %.

Row | Structure (SMILES) | Solubility in Cyclohexanone | Solubility in MEK | Solubility in MIBK | Solubility in Toluene
1 | CCOC(=O)Nc1cc2c(cc1C1=C([O-])/C(=c3\cc4c(cc3NC(=O)OCC)=[N+](CCOC)C(C)C4(C)C)C1=O)C(C)(C)C(C)N2CCOC (centres unmarked) [Synthesis Example 1] | A (A case where the solubility is 1% by mass or more.) | A (A case where the solubility is 1% by mass or more.) | A (A case where the solubility is 1% by mass or more.) | B (A case where the solubility is 0.5 mass % or more and less than 1 mass %.)
2 | CCCCC(CC)COC(=O)Nc1cc2c(cc1C1=C([O-])/C(=c3\cc4c(cc3NC(=O)OCC(CC)CCCC)=[N+](CCOC)C(C)C4(C)C)C1=O)C(C)(C)C(C)N2CCOC (centres unmarked) [Synthesis Example 2] | A (A case where the solubility is 1% by mass or more.) | A (A case where the solubility is 1% by mass or more.) | A (A case where the solubility is 1% by mass or more.) | B (A case where the solubility is 0.5 mass % or more and less than 1 mass %.)
3 | CCCCC(CC)COC(=O)Nc1cc2c(cc1C1=C([O-])/C(=c3\cc4c(cc3NC(=O)OCC(CC)CCCC)=[N+](C)C(C)C4(C)C)C1=O)C(C)(C)C(C)N2C (centres unmarked) [Synthesis Example 3] | A (A case where the solubility is 1% by mass or more.) | A (A case where the solubility is 1% by mass or more.) | A (A case where the solubility is 1% by mass or more.) | A (A case where the solubility is 1% by mass or more.)
4 | CCCCCCN1c2cc(NC(C)=O)c(C3=C([O-])/C(=c4\cc5c(cc4NC(C)=O)=[N+](CCCCCC)C(C)C5(C)C)C3=O)cc2C(C)(C)C1C (centres unmarked) [Synthesis Example 4] | A (A case where the solubility is 1% by mass or more.) | A (A case where the solubility is 1% by mass or more.) | A (A case where the solubility is 1% by mass or more.) | B (A case where the solubility is 0.5 mass % or more and less than 1 mass %.)
5 | CCCCCCN1c2cc(NC(=O)C(CC)CCCC)c(C3=C([O-])/C(=c4\cc5c(cc4NC(=O)C(CC)CCCC)=[N+](CCCCCC)C(C)C5(C)C)C3=O)cc2C(C)(C)C1C (centres unmarked) [Synthesis Example 5] | A (A case where the solubility is 1% by mass or more.) | A (A case where the solubility is 1% by mass or more.) | A (A case where the solubility is 1% by mass or more.) | A (A case where the solubility is 1% by mass or more.)
6 | CCCCCCCCS(=O)(=O)Nc1cc2c(cc1C1=C([O-])/C(=c3\cc4c(cc3NS(=O)(=O)CCCCCCCC)=[N+](CCCCCC)C(C)C4(C)C)C1=O)C(C)(C)C(C)N2CCCCCC (centres unmarked) [Synthesis Example 6] | A (A case where the solubility is 1% by mass or more.) | A (A case where the solubility is 1% by mass or more.) | A (A case where the solubility is 1% by mass or more.) | A (A case where the solubility is 1% by mass or more.)
7 | CC(=O)Nc1cc2c(cc1C1=C([O-])/C(=c3\cc4c(cc3NC(C)=O)=[N+](C)C(C)C4(C)C)C1=O)C(C)(C)C(C)N2C (centres unmarked) [Synthesis Example 7] | A (A case where the solubility is 1% by mass or more.) | B (A case where the solubility is 0.5 mass % or more and less than 1 mass %.) | A (A case where the solubility is 1% by mass or more.) | B (A case where the solubility is 0.5 mass % or more and less than 1 mass %.)
8 | C/C(C1=Nc2ccc3ccccc3c2C1(C)C)=C1/C(=O)C(C(/C)=C2/Nc3ccc4ccccc4c3C2(C)C)=C1O [Synthesis Example 12] | B (A case where the solubility is 0.5 mass % or more and less than 1 mass %.) | C (A case where the solubility is 0.2 mass % or more and less than 0.5 mass %.) | B (A case where the solubility is 0.5 mass % or more and less than 1 mass %.) | C (A case where the solubility is 0.2 mass % or more and less than 0.5 mass %.)
9 | CC(C)(C)C1=C\C(=C/C=C/C=C/c2cc(C(C)(C)C)[o+]c3ccccc23)c2ccccc2O1 [Synthesis Example 13] | A (A case where the solubility is 1% by mass or more.) | A (A case where the solubility is 1% by mass or more.) | A (A case where the solubility is 1% by mass or more.) | B (A case where the solubility is 0.5 mass % or more and less than 1 mass %.)
10 | Cc1ccc2c(c1)/C(=C/C=C/C=C/c1cc(C(C)(C)C)[o+]c3ccc(C)cc13)C=C(C(C)(C)C)O2 [Synthesis Example 14] | A (A case where the solubility is 1% by mass or more.) | A (A case where the solubility is 1% by mass or more.) | A (A case where the solubility is 1% by mass or more.) | A (A case where the solubility is 1% by mass or more.)
11 | CC(C)(C)C1=C\C(=C/C=C(Cl)/C=C/c2cc(C(C)(C)C)[o+]c3ccccc23)c2ccccc2O1 [Synthesis Example 15] | A (A case where the solubility is 1% by mass or more.) | A (A case where the solubility is 1% by mass or more.) | A (A case where the solubility is 1% by mass or more.) | B (A case where the solubility is 0.5 mass % or more and less than 1 mass %.)
12 | COc1ccc2c(c1)/C(=C/C=C(Cl)/C=C/c1cc(C(C)(C)C)[o+]c3ccc(OC)cc13)C=C(C(C)(C)C)O2 [Synthesis Example 16] | A (A case where the solubility is 1% by mass or more.) | A (A case where the solubility is 1% by mass or more.) | A (A case where the solubility is 1% by mass or more.) | A (A case where the solubility is 1% by mass or more.)
13 | CC(C)(C)C1=C\C(=C/C=C/C=C/c2cc(-c3ccccc3)[o+]c(C(C)(C)C)c2)C=C(c2ccccc2)O1 [Synthesis Example 17] | B (A case where the solubility is 0.5 mass % or more and less than 1 mass %.) | B (A case where the solubility is 0.5 mass % or more and less than 1 mass %.) | A (A case where the solubility is 1% by mass or more.) | B (A case where the solubility is 0.5 mass % or more and less than 1 mass %.)
14 | CC(C)(C)C1=C\C(=C/C=C(Cl)/C=C/c2cc(-c3ccc(C(C)(C)C)cc3)[o+]c(C(C)(C)C)c2)C=C(c2ccc(C(C)(C)C)cc2)O1 [Synthesis Example 18] | A (A case where the solubility is 1% by mass or more.) | A (A case where the solubility is 1% by mass or more.) | A (A case where the solubility is 1% by mass or more.) | B (A case where the solubility is 0.5 mass % or more and less than 1 mass %.)
